Results: ChEMBL document CHEMBL1142690, “Synthesis of NO-donor bisphosphonates and their in-vitro action on bone resorption” (J Med Chem, 2005)

Experiments:
[1] = test system: RAW264.7; assay: Effect of compound on osteoclasts formation (compound concentration of 100 nM and RANKL at 50 ng/ml) as observed in clonal RAW264.7 cells; format: functional, Mus musculus
[2] = Dissociation constant determined by the pH-metric method; format: functional
[3] = Affinity for hydroxyapatite after 24 hours; format: functional
[4] = test system: RAW264.7; assay: Effect of compound on osteoclasts formation (compound concentration of 100 nM, RANKL at 50 ng/ml and ODQ at 10 uM) as observed in clonal RAW264.7 cells; format: functional, Mus musculus
[5] = test system: Rattus; assay: Effect of compound on osteoclast resorption activity at concentration of 100 nM in rat femur; format: functional
[6] = organism: Rattus norvegicus; assay: Effect of compound on osteoclasts formation at concentration of 100 nM in rat femurs; format: functional, Femur
[7] = test system: Rattus; assay: Effect of compound on osteoclast resorption activity at concentration of 100 nM in rat femurs; format: functional, Femur

Structure (SMILES) | Count [1] | pKa1 [2] | pKa2 [2] | pKa3 [2] | pKa4 [2] | Affinity [3] | Count [4] | Ratio [5] | Count [6] | Ratio [7]
O=[N+]([O-])OCCCCC(O)(P(=O)(O)O)P(=O)(O)O | 32.8 | < 1.5 | 2.85 | 6.83 | 11.3 | 43.4% | 59.6 | – | – | –
CCCCC(P(=O)(O)O)P(=O)(O)O | 61.2 | – | – | – | – | – | 62.4 | – | – | –
O=[N+]([O-])OCCCCC(P(=O)(O)O)P(=O)(O)O | 40.2 | < 1.5 | 3.08 | 6.87 | 11.5 | 65% | 58.9 | 1.18 | 21.88 | –
CC(C)C[C@H](NC(=O)[C@H](CCCCN)NC(=O)CNC(=O)[C@H](CC(C)C)NC(=O)[C@@H](NC(=O)[C@@H]1CSSC[C@H](N)C(=O)N[C@@H](CO)C(=O)N[C@@H](CC(N)=O)C(=O)N[C@@H](CC(C)C)C(=O)N[C@@H](CO)C(=O)N[C@@H]([C@@H](C)O)C(=O)N1)C(C)C)C(=O)N[C@@H](CO)C(=O)N[C@@H](CCC(N)=O)C(=O)N[C@@H](CCC(=O)O)C(=O)N[C@@H](CC(C)C)C(=O)N[C@@H](Cc1c[nH]cn1)C(=O)N[C@@H](CCCCN)C(=O)N[C@@H](CC(C)C)C(=O)N[C@@H](CCC(N)=O)C(=O)N[C@H](C(=O)N[C@@H](Cc1ccc(O)cc1)C(=O)N1CCC[C@H]1C(=O)N[C@@H](CCCNC(=N)N)C(=O)N[C@H](C(=O)N[C@@H](CC(N)=O)C(=O)N[C@H](C(=O)NCC(=O)N[C@@H](CO)C(=O)NCC(=O)N[C@H](C(=O)N1CCC[C@H]1C(N)=O)[C@@H](C)O)[C@@H](C)O)[C@@H](C)O)[C@@H](C)O [CALCITONIN SALMON] | – | – | – | – | – | – | – | – | 27.5 | 0.01
CCCCCN(C)CCC(O)(P(=O)(O)O)P(=O)(O)O [IBANDRONIC ACID] | 39.8 | – | – | – | – | – | 34.2 | – | – | –
O=P(O)(O)C(Sc1ccc(Cl)cc1)P(=O)(O)O | – | < 1.5 | 2.27 | 6.31 | 10.6 | 58.4% | – | – | – | –
